# Laboratory results taken from patent US9079913B2, “Spiro-oxindole MDM2 antagonists” (The Regents of the University of Michigan, priority 2009, dated 2015).
# Like-named read-outs stand apart in the source and are kept apart here.
# Assays:
# [1] = target: recombinant human His-tagged MDM2 protein (residues 1-118) (Homo sapiens (Human), UniProt Q00987); assay: Fluorescence-polarization MDM2 binding assay;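 also: fluorescence polarization read after three hours of incubation in potassium phosphate buffer containing bovine gamma globulin and Triton X-100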
# recombinant human His-tagged MDM2 protein (residues 1-118), sequence (Q00987 1-118): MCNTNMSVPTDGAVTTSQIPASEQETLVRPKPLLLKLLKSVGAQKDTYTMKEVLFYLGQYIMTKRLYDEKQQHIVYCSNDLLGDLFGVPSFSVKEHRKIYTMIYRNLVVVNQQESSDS
# Experimental: The assay was performed in the buffer: 100 mM potassium phosphate, pH 7.5; 100 μg/mL bovine gamma globulin; 0.02% sodium azide, 0.01% Triton X-100) and the polarization values were measured after 3 h of incubation using an ULTRA READER (Tecan U.S. Inc., Research Triangle Park, N.C.). […] The Kd value was calculated using the equation: Kd value=IC50−L0/2.
# The polarization values were measured after 3 h of incubation. […] Curve fitting was performed using [sequence] PRISM software (GraphPad Software, Inc., San Diego, Calif.). […] Compounds shown in Tables 19A-D as the free base were tested either as the free base or as the CF3CO2H (TFA) or HCl salt.
# [2] = tested on: Isogenic HCT-116 colon cancer cell lines; assay: cells; assay type: cell-based;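 also: cells grown in 96-well plates in McCoy's 5A medium with 10% FBS, exposed to compound for 4 days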
# Experimental: Cells were seeded in 96-well flat bottom cell culture plates at a density of 2−3×10^3 cells/well with compounds and incubated for 4 days.
# [3] = tested on: cancer cell lines with wild-type p53 / mutated or deleted p53 (ATCC); assay: Cell growth assay (WST-8), other cancer cell lines; assay type: cell-based
# [4] = Table 19D, read-out: MDM2 Binding Affinities IC50
# [5] = Homo sapiens, HCT-116, read-out: HCT116p53KO IC50, Table 19D, HCT116 p53KO
# [6] = Homo sapiens, HCT-116, read-out: HCT116p53WT IC50, Table 19D, HCT116 p53WT
# [7] = Homo sapiens, LNCaP, Table 19D, LNCaP cells, read-out: LNCaP IC50
# [8] = Homo sapiens, PC-3, Table 19D, PC3 cells, read-out: PC3 IC50
# [9] = Homo sapiens, Table 19D, SJSA-1 cells, unit inferred, read-out: SJSA-1
# [10] = Table 19A, FP binding assay, read-out: MDM2 IC50
# [11] = Homo sapiens, HCT-116, read-out: HCT-116 (p53-/-) IC50, Table 19A, HCT-116 p53-/-, cell growth
# [12] = Homo sapiens, HCT-116, read-out: HCT-116 (p53 wild-type) IC50, Table 19A, HCT-116 p53 wild-type, cell growth
# [13] = Homo sapiens, SJSA-1, Table 19A, SJSA-1 cells, p53 wild-type, cell growth, read-out: SJSA-1 (p53 wild-type) IC50
# [14] = Homo sapiens, LNCaP, Table 19A, LNCAP cells, p53 wild-type, cell growth, read-out: LNCAP (p53 wild-type) IC50
# [15] = Homo sapiens, PC-3, Table 19A, PC-3 cells, deleted p53, cell growth, read-out: PC-3 (deleted p53) IC50
# [16] = Table 19B, read-out: Binding affinities to MDM2 protein as determined by FP based assay IC50
# [17] = read-out: Inhibition of cell growth IC50, HCT116 p53 KO, Table 19B, HCT116 p53 KO
# [18] = read-out: Inhibition of cell growth IC50, HCT116 p53 WT, Table 19B, HCT116 p53 WT
# [19] = Table 19B, LNCaP cells, read-out: Inhibition of cell growth IC50, LNCaP
# [20] = Table 19B, PC3 cells, read-out: Inhibition of cell growth IC50, PC3
# [21] = Homo sapiens, HCT-116, read-out: Inhibition of cell growth IC50, HCT116 p53 KO, Table 19B, HCT116 p53 KO
# [22] = Homo sapiens, HCT-116, read-out: Inhibition of cell growth IC50, HCT116 p53 WT, Table 19B, HCT116 p53 WT
# [23] = Homo sapiens, LNCaP, Table 19B, LNCaP cells, read-out: Inhibition of cell growth IC50, LNCaP
# [24] = Homo sapiens, PC-3, Table 19B, PC3 cells, read-out: Inhibition of cell growth IC50, PC3
SMILES,"IC50 [1, 10] [µM]","IC50 [2, 11] [µM]","IC50 [2, 12] [µM]","IC50 [3, 13] [µM]","IC50 [3, 14] [µM]","IC50 [3, 15] [µM]",also measured
CC(C)(C)C[C@H]1N[C@@H](C(=O)NC2CCN(CCC(F)(F)F)CC2)[C@H](c2cccc(Cl)c2F)[C@@]12C(=O)Nc1cc(Cl)ccc12 [MI-519-57-1],–,–,–,–,–,–,"IC50 [1, 4]: < 1 µM; IC50 [2, 5]: 9.5 µM; IC50 [2, 6]: < 3 µM; IC50 [3, 7]: < 3 µM; IC50 [3, 8]: 8.8 µM; IC50 [3, 9]: < 3 µM"
CC(C)(C)C[C@H]1N[C@@H](C(=O)NC2CCNCC2)[C@H](c2cccc(Cl)c2F)[C@@]12C(=O)Nc1cc(Cl)ccc12 [MI-782],< 1,4.7,0.7,1.2,–,–,–
CC(C)(C)C[C@H]1N[C@@H](C(=O)N2CCNCC2)[C@H](c2cccc(Cl)c2)[C@@]12C(=O)Nc1cc(Cl)c(F)cc12 [MI-739],< 5,3 ± 0.2,2.1 ± 0.6,–,1.5 ± 0.5,3.2 ± 0.7,–
CCCN1CCN(CCNC(=O)[C@@H]2N[C@H](CC(C)(C)C)[C@]3(C(=O)Nc4cc(Cl)c(F)cc43)[C@H]2c2cccc(Cl)c2)CC1 [MI-519-21],–,–,–,–,–,–,"IC50 [1, 4]: < 3 µM; IC50 [2, 5]: 5.8 ± 1.9 µM; IC50 [2, 6]: 1.4 ± 0.5 µM; IC50 [3, 7]: 1.5 ± 0.6 µM; IC50 [3, 8]: 4.8 ± 0.4 µM"
CC(C)[C@@H](N)C(=O)OC1CCC(NC(=O)[C@@H]2N[C@H](CC(C)(C)C)[C@]3(C(=O)Nc4cc(Cl)ccc43)[C@H]2c2cccc(Cl)c2F)CC1 (stereo partly drawn) [MI-905],< 1,8,< 3,< 3,< 3,3.9,–
CC(C)(C)C[C@H]1N[C@@H](C(=O)NCC2CC(O)C(O)C2)[C@H](c2cccc(Cl)c2)[C@@]12C(=O)Nc1cc(Cl)c(F)cc12 (stereo partly drawn) [MI-519-36],< 1,29.8 ± 6.5,1.2 ± 0.6,–,0.9 ± 0.1,20.6 ± 5.3,–
CN1CCC(NC(=O)[C@@H]2N[C@H](CC(C)(C)C)[C@]3(C(=O)Nc4cc(Cl)ccc43)[C@H]2c2cccc(Cl)c2F)CC1 [MI-519-52],–,–,–,–,–,–,"IC50 [1, 4]: < 1 µM; IC50 [2, 5]: > 5 µM; IC50 [2, 6]: < 1 µM; IC50 [3, 7]: < 1 µM; IC50 [3, 8]: > 3 µM; IC50 [3, 9]: < 1 µM"
C[C@@H](N)C(=O)OC1CCC(NC(=O)[C@@H]2N[C@H](CC(C)(C)C)[C@]3(C(=O)Nc4cc(Cl)ccc43)[C@H]2c2cccc(Cl)c2F)CC1 (stereo partly drawn) [MI-906],< 1,9.1,< 3,< 3,< 3,3.6,–
CN1[C@@H](C(=O)NCC[C@H](O)CO)[C@H](c2cccc(Cl)c2)[C@@]2(C(=O)Nc3cc(Cl)c(F)cc32)[C@H]1CC(C)(C)C [MI-708B],–,–,–,–,–,–,"IC50 [1, 16]: > 3 µM; IC50 [2, 17]: 96.9 ± 17.8 µM; IC50 [2, 18]: 6.6 ± 2.2 µM; IC50 [3, 19]: 6 ± 0.3 µM; IC50 [3, 20]: 84.5 ± 18.3 µM"
O=C(NC1CCC(O)CC1)[C@@H]1N[C@H](C=C2CCCC2)[C@]2(C(=O)Nc3cc(Cl)ccc32)[C@H]1c1cccc(Cl)c1F (stereo partly drawn) [MI-792],< 5,> 20,< 10,< 10,< 10,> 20,–
CCCCNC(=O)N1CC(NC(=O)[C@@H]2N[C@H](CC(C)(C)C)[C@]3(C(=O)Nc4cc(Cl)ccc43)[C@H]2c2cccc(Cl)c2F)C1 [MI-916],< 0.1,> 5,< 3,< 5,< 3,> 5,–
CC(C)CC(C)(C)C[C@H]1N[C@@H](C(=O)NCC[C@H](O)CO)[C@H](c2cccc(Cl)c2F)[C@@]12C(=O)Nc1cc(Cl)c(F)cc12 [MI-731],–,–,–,–,–,–,"IC50 [1, 16]: < 1 µM; IC50 [2, 21]: 6.4 ± 1.7 µM; IC50 [2, 22]: 0.9 ± 0.5 µM; IC50 [3, 23]: 0.8 ± 0.5 µM; IC50 [3, 24]: 5.6 ± 1.9 µM"
CC(=O)N1CCN(C(=O)[C@@H]2N[C@H](CC(C)(C)C)[C@]3(C(=O)Nc4cc(Cl)c(F)cc43)[C@H]2c2cccc(Cl)c2)CC1 [MI-742],< 10,19.9 ± 10.3,1.7 ± 0.1,–,2.2 ± 0.3,10.2 ± 4.8,–
CC(C)(C)C[C@H]1N[C@@H](C(=O)N[C@@H]2CCN(CCF)C[C@@H]2F)[C@H](c2cccc(Cl)c2F)[C@@]12C(=O)Nc1cc(Cl)ccc12 [MI-519-59],–,–,–,–,–,–,"IC50 [1, 4]: < 1 µM; IC50 [2, 5]: > 10 µM; IC50 [2, 6]: < 1 µM; IC50 [3, 7]: < 3 µM; IC50 [3, 8]: > 10 µM; IC50 [3, 9]: < 3 µM"
CCC(C)(C)C[C@H]1N(C)[C@@H](C(=O)NCC[C@H](O)CO)[C@H](c2cccc(Cl)c2F)[C@@]12C(=O)Nc1cc(F)c(F)cc12 [MI-723],–,–,–,–,–,–,"IC50 [1, 16]: < 5 µM; IC50 [2, 21]: 51.3 µM; IC50 [2, 22]: 2.42 µM; IC50 [3, 23]: 2.3 µM; IC50 [3, 24]: 24.7 µM"
CC(C)(C)C[C@H]1N[C@@H](C(=O)NCC[C@H](O)CO)[C@H](c2cccc(Cl)c2)[C@@]12C(=O)Nc1c(Cl)cccc12 [MI-727],–,–,–,–,–,–,"IC50 [1, 16]: > 10 µM; IC50 [2, 21]: 20.9 ± 1.1 µM; IC50 [2, 22]: 24.1 ± 0.7 µM; IC50 [3, 23]: 12.2 ± 0.5 µM; IC50 [3, 24]: 21.4 ± 4.8 µM"
CC(C)CC(C)(C)C[C@H]1N(C)[C@@H](C(=O)NCC[C@H](O)CO)[C@H](c2cccc(Cl)c2)[C@@]12C(=O)Nc1cc(F)c(F)cc12 [MI-737],–,–,–,–,–,–,"IC50 [1, 16]: > 1 µM; IC50 [2, 21]: 24.4 µM; IC50 [2, 22]: 5 µM; IC50 [2, 17]: 15 µM; IC50 [2, 18]: 4.5 µM; IC50 [3, 23]: 3.53 µM; IC50 [3, 24]: 11.3 µM; IC50 [3, 19]: 3.73 µM; IC50 [3, 20]: 11.6 µM"
CN(C)CCC(=O)N1CCN(C(=O)[C@@H]2N[C@H](CC(C)(C)C)[C@]3(C(=O)Nc4cc(Cl)c(F)cc43)[C@H]2c2cccc(Cl)c2)CC1 [MI-746],< 10,6.7 ± 1.8,2.3 ± 0.1,–,2.2 ± 0.4,6.9 ± 1.2,–
CC(C)(C)C[C@H]1N[C@@H](C(=O)NC2CCN(CC(C)(C)O)CC2)[C@H](c2cccc(Cl)c2F)[C@@]12C(=O)Nc1cc(Cl)ccc12 [MI-785],< 0.5,8,0.5,0.7,–,–,–
CC(C)(C)C[C@H]1N[C@@H](C(=O)NCC[C@H](O)CN)[C@H](c2cccc(Cl)c2)[C@@]12C(=O)Nc1cc(Cl)c(F)cc12 [MI-319-25],–,–,–,–,–,–,"IC50 ([1]; Table 19C, read-out: Bidning affinities to MDM2 as determined using FP assay IC50): < 1 µM; IC50 ([2]; Homo sapiens, HCT-116, read-out: Cell growth inhibition using WST assay, HCT116 p53KO IC50, Table 19C, HCT116 p53KO): > 10 µM; IC50 ([2]; Homo sapiens, HCT-116, read-out: Cell growth inhibition using WST assay, HCT116 p53WT IC50, Table 19C, HCT116 p53WT): < 5 µM; IC50 ([3]; Homo sapiens, LNCaP, Table 19C, LNCaP cells, read-out: Cell growth inhibition using WST assay, LNCaP IC50): < 5 µM; IC50 ([3]; Homo sapiens, PC-3, Table 19C, PC3 cells, read-out: Cell growth inhibition using WST assay, PC3 IC50): > 10 µM"
CC(C)[C@H](N)C(=O)OC1CCC(NC(=O)[C@@H]2N[C@H](CC(C)(C)C)[C@]3(C(=O)Nc4cc(Cl)ccc43)[C@H]2c2cccc(Cl)c2F)CC1 (stereo partly drawn) [MI-902],< 3,5.9,< 3,< 3,< 3,4,–
CC(C)(C)C[C@H]1N[C@@H](C(=O)NCC[C@H](O)C=O)[C@H](c2cccc(Cl)c2)[C@@]12C(=O)Nc1cc(Cl)c(F)cc12 [MI-219-M1 (a)],< 1,> 10,< 3,–,< 3,> 10,–
